Results published in PubChem BioAssay AID248 (DTP/NCI, 2004).
Values joined by “and” are separate entries in the source; they are usually repeats but may differ in a detail not shown here. Identical values can stand only once. Inconclusive results and toxic doses are left out. Rule as the data show it: active = T/C of 150% or more; inactive = T/C below 125%.

System: L1210 leukemia ip in BDF1 mice, survival T/C
Test: NCI In Vivo Anticancer Drug Screen. Data for tumor model L1210 Leukemia (intraperitoneal) in B6D2F1 (BDF1) mice
Conditions: endpoint: mean survival time, higher = longer survival
Procedure, shortened: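 Transplantable tumor model; survival measured in treated vs vehicle control mice. Value = treated/control.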

[1] = dose: 100.0 mg/kg/injection, schedule: Q01DX001 (ip), vehicle: carboxymethylcellulose (CMC)
[2] = dose: 200.0 mg/kg/injection, schedule: Q01DX001 (ip), vehicle: carboxymethylcellulose (CMC)
[3] = dose: 400.0 mg/kg/injection, schedule: Q01DX001 (ip), vehicle: carboxymethylcellulose (CMC)
[4] = dose: 100.0 mg/kg/injection, schedule: Q04DX003 (ip), vehicle: Klucel (hydroxypropylcellulose) (HPC)
[5] = dose: 200.0 mg/kg/injection, schedule: Q04DX003 (ip), vehicle: Klucel (hydroxypropylcellulose) (HPC)
[6] = dose: 400.0 mg/kg/injection, schedule: Q04DX003 (ip), vehicle: Klucel (hydroxypropylcellulose) (HPC)
[7] = dose: 100.0 mg/kg/injection, schedule: Q01DX009 (ip), vehicle: Klucel (hydroxypropylcellulose) (HPC)
[8] = dose: 200.0 mg/kg/injection, schedule: Q01DX009 (ip), vehicle: Klucel (hydroxypropylcellulose) (HPC)
[9] = dose: 400.0 mg/kg/injection, schedule: Q01DX009 (ip), vehicle: Klucel (hydroxypropylcellulose) (HPC)
[10] = dose: 100.0 mg/kg/injection, schedule: Q04DX002 (ip), vehicle: Klucel (hydroxypropylcellulose) (HPC)
[11] = dose: 200.0 mg/kg/injection, schedule: Q04DX002 (ip), vehicle: Klucel (hydroxypropylcellulose) (HPC)
[12] = dose: 100.0 mg/kg/injection, schedule: Q04DX003 (ip), vehicle: saline
[13] = dose: 200.0 mg/kg/injection, schedule: Q04DX003 (ip), vehicle: saline
[14] = dose: 100.0 mg/kg/injection, schedule: Q01DX001 (ip), vehicle: saline
[15] = dose: 200.0 mg/kg/injection, schedule: Q01DX001 (ip), vehicle: saline
[16] = dose: 400.0 mg/kg/injection, schedule: Q01DX001 (ip), vehicle: saline

Measured: T/C

Nc1nc(I)c2[nH]cnc2n1
inactive: dose: 25.0 mg/kg/injection, schedule: Q01DX Z (ip), vehicle: methylcellulose (MC) 95 % of control | dose: 50.0 mg/kg/injection, schedule: Q01DX Z (ip), vehicle: methylcellulose (MC) 103 % of control | dose: 100.0 mg/kg/injection, schedule: Q01DX Z (ip), vehicle: methylcellulose (MC) 108 % of control

CC(C(=O)O)c1ccccc1 (configuration not stated)
inactive: dose: 12.5 mg/kg/injection, schedule: Q01DX009 (ip), vehicle: saline with Tween-80 95 % of control | dose: 25.0 mg/kg/injection, schedule: Q01DX009 (ip), vehicle: saline with Tween-80 95 % of control | dose: 50.0 mg/kg/injection, schedule: Q01DX009 (ip), vehicle: saline with Tween-80 95 % of control and 90 % of control

CCCNC(=O)Nc1ccc(C)cc1
inactive: [1] 116 % of control | [2] 94 % of control | [3] 103 % of control

SCc1c(Cl)c(Cl)c(Cl)c(Cl)c1Cl.[Hg]
inactive: [4] 93 % of control | [5] 91 % of control | [6] 93 % of control

O=C(Nc1cc(Cl)ccc1Cl)c1cccc(Cl)c1
inactive: [7] 93 % of control | [8] 100 % of control | [9] 97 % of control

CCOC(=O)C1C2OC(=O)C(C(=O)C2C(C2CC=CCC2)N(CCCl)CCCl)C1c1ccc(OC(C)=O)cc1 (configuration not stated)
inactive: [4] 101 % of control | [5] 97 % of control | [6] 98 % of control

O=C(Nc1ccccc1F)Oc1ccc(Cl)cc1Cl
inactive: dose: 50.0 mg/kg/injection, schedule: Q01DX009 (ip), vehicle: Klucel (hydroxypropylcellulose) (HPC) 114 % of control | [7] 111 % of control | [10] 105 % of control | [8] 102 % of control | [11] 102 % of control

O=C(O)c1ccc(Br)cc1F
inactive: [1] 89 % of control | dose: 100.0 mg/kg/injection, schedule: Q01DX009 (ip), vehicle: carboxymethylcellulose (CMC) 109 % of control and 92 % of control | [10] 97 % of control | dose: 100.0 mg/kg/injection, schedule: Q04DX002 (ip), vehicle: carboxymethylcellulose (CMC) 104 % of control and 107 % of control | dose: 100.0 mg/kg/injection, schedule: Q04DX003 (ip), vehicle: carboxymethylcellulose (CMC) 97 % of control | [2] 99 % of control | dose: 200.0 mg/kg/injection, schedule: Q01DX009 (ip), vehicle: carboxymethylcellulose (CMC) 116 % of control and 89 % of control | [11] 97 % of control | dose: 200.0 mg/kg/injection, schedule: Q04DX002 (ip), vehicle: carboxymethylcellulose (CMC) 102 % of control and 91 % of control | dose: 200.0 mg/kg/injection, schedule: Q04DX003 (ip), vehicle: carboxymethylcellulose (CMC) 99 % of control | [3] 89 % of control | dose: 400.0 mg/kg/injection, schedule: Q01DX009 (ip), vehicle: carboxymethylcellulose (CMC) 95 % of control and 92 % of control | dose: 400.0 mg/kg/injection, schedule: Q04DX002 (ip), vehicle: Klucel (hydroxypropylcellulose) (HPC) 97 % of control | dose: 400.0 mg/kg/injection, schedule: Q04DX002 (ip), vehicle: carboxymethylcellulose (CMC) 99 % of control and 100 % of control | dose: 400.0 mg/kg/injection, schedule: Q04DX003 (ip), vehicle: carboxymethylcellulose (CMC) 105 % of control

CC(C)OC(CCCl)c1ccccc1 (configuration not stated)
inactive: [7] 91 % of control | [4] 96 % of control | [8] 96 % of control | [5] 102 % of control | [9] 95 % of control | [6] 96 % of control

CC(C)CCCC(C)CCC1=C(O)c2ccccc2C(=O)C1=O (configuration not stated)
inactive: dose: 100.0 mg/kg/injection, schedule: Q01DX001 (ip), vehicle: Klucel (hydroxypropylcellulose) (HPC) 102 % of control | [4] 101 % of control | dose: 200.0 mg/kg/injection, schedule: Q01DX001 (ip), vehicle: Klucel (hydroxypropylcellulose) (HPC) 98 % of control | [5] 97 % of control | dose: 400.0 mg/kg/injection, schedule: Q01DX001 (ip), vehicle: Klucel (hydroxypropylcellulose) (HPC) 100 % of control | [6] 97 % of control

CC/C(=N/N(C)C)c1ccccc1
inactive: [12] 96 % of control | [13] 93 % of control

CC(C)(CBr)C(=O)Cl
inactive: [14] 101 % of control | [15] 106 % of control | [16] 101 % of control

c1ccc2c(c1)ccc1c3c(oc12)CCCC3
inactive: [14] 116 % of control | [15] 103 % of control | [16] 105 % of control

CONC(=O)NC(=O)C1(c2ccccc2)CCCCC1
inactive: dose: 25.0 mg/kg/injection, schedule: Q01DX Z (ip), vehicle: carboxymethylcellulose (CMC) 96 % of control | dose: 50.0 mg/kg/injection, schedule: Q01DX Z (ip), vehicle: carboxymethylcellulose (CMC) 95 % of control | [14] 86 % of control | dose: 100.0 mg/kg/injection, schedule: Q01DX Z (ip), vehicle: carboxymethylcellulose (CMC) 95 % of control | [15] 100 % of control | dose: 200.0 mg/kg/injection, schedule: Q01DX Z (ip), vehicle: carboxymethylcellulose (CMC) 102 % of control | dose: 200.0 mg/kg/injection, schedule: Q01DX Z (ip), vehicle: methylcellulose (MC) 119 % of control | [16] 102 % of control | dose: 400.0 mg/kg/injection, schedule: Q01DX Z (ip), vehicle: carboxymethylcellulose (CMC) 96 % of control | dose: 400.0 mg/kg/injection, schedule: Q01DX Z (ip), vehicle: methylcellulose (MC) 112 % of control

COC(=O)N1C2C=CC(=O)C(C=C2)N1C(=O)OC (configuration not stated)
inactive: dose: 75.0 mg/kg/injection, schedule: Q01DX001 (ip), vehicle: saline 106 % of control | dose: 150.0 mg/kg/injection, schedule: Q01DX001 (ip), vehicle: saline 106 % of control | dose: 300.0 mg/kg/injection, schedule: Q01DX001 (ip), vehicle: saline 109 % of control

Cc1cccc(C)c1N1C(=O)CC(Sc2ccccc2N)C1=O (configuration not stated)
inactive: [7] 92 % of control | [4] 98 % of control | [8] 88 % of control | [5] 95 % of control | [9] 88 % of control | [6] 93 % of control

COC1C(O)C(CO)OC1n1ccc(N)nc1=O (configuration not stated)
inactive: [14] 95 % of control | [15] 95 % of control | [16] 98 % of control

COc1ccc(C(=O)CCCCl)c(OC)c1
inactive: dose: 100.0 mg/kg/injection, schedule: Q01DX009 (ip), vehicle: saline with Tween-80 95 % of control | dose: 100.0 mg/kg/injection, schedule: Q04DX003 (ip), vehicle: saline with Tween-80 89 % of control | dose: 200.0 mg/kg/injection, schedule: Q01DX009 (ip), vehicle: saline with Tween-80 93 % of control | dose: 200.0 mg/kg/injection, schedule: Q04DX003 (ip), vehicle: saline with Tween-80 96 % of control | dose: 400.0 mg/kg/injection, schedule: Q01DX009 (ip), vehicle: saline with Tween-80 93 % of control | dose: 400.0 mg/kg/injection, schedule: Q04DX003 (ip), vehicle: saline with Tween-80 91 % of control

O=C(O)C(O)Cc1ccccc1 (configuration not stated)
inactive: dose: 90.0 mg/kg/injection, schedule: Q04DX003 (ip), vehicle: saline 105 % of control | [12] 100 % of control and 107 % of control | dose: 135.0 mg/kg/injection, schedule: Q04DX003 (ip), vehicle: saline 100 % of control | [13] 102 % of control and 107 % of control | dose: 300.0 mg/kg/injection, schedule: Q04DX003 (ip), vehicle: saline 92 % of control | dose: 400.0 mg/kg/injection, schedule: Q04DX003 (ip), vehicle: saline 106 % of control
